The text below walks through data of patent US12129267B2, “Heteroaryl amide compounds as sting activators” (Incyte Corporation, priority 2019, dated 2024).

The test relates to IRF3. Kind of test: IRF3 activation assay in THP-1 Dual Cells. Format: cell-based. Particulars: Homo sapiens, THP1-Dual, 24 hours incubation, QUANTI-Blue readout. How it is done:
THP-1 Dual Cells (Invivogen) were maintained in RPMI1640 medium with addition of 10% FBS, 100 μg/mL zeocin, 10 μg/mL blasticidin. Cells were added in a 96-well flat bottom assay plate at 100,000 per well in 100 μL complete RPMI medium. Test compounds were prepared by serial dilution in complete RPMI medium and 100 μL test compounds were transferred to each corresponding well. The assay plate was incubated at 37° C., 5% CO2 for 24 hours. After the overnight incubation, 20 μL of the culture supernatants were collected, followed by addition of 180 μL of QUANTI-Blue (Invivogen) to assess IRF3 activity. The amount of IRF3 activation was assessed by reading the absorbance at 620-655 nm with a microplate reader 2 hours later. The culture supernatant from the untreated THP-1 cells was used as the negative control. To determine the NF-κB activation, another 20 μL of culture supernatant were transferred to a 96-well white plate, followed by addition of 50 μL of Quanti-Luc™ assay solution (Invivogen). The amount of NF-κB activation induced by the test compounds were determined by the luminescence above the untreated control. EC50 determination was performed by fitting the curve of percent control activity versus the log of the compound concentration using the GraphPad Prism 6.0 software.
Take `CCn1nc(C)cc1C(=O)Nc1nc2cc(C(N)=O)c3ccoc3c2n1C/C=C/Cn1c2nc(-c3cc(C)nn3CC)ncc2c2cc(C(N)=O)cc(OC)c21` [Example 1, (E)-1-(4-(6-carbamoyl-2-(1-ethyl-3-methyl-1H-pyrazol-5-yl)-8-methoxy-9H-pyrimido[4,5-b]indol-9-yl)but-2-en-1-yl)-2-(1-ethyl-3-methyl-1H-pyrazole-5-carboxamido)-1H-benzofuro[6,7-d]imidazole-5-carboxamide]: the EC50 (in general, the concentration at which the effect is half-maximal) is below 100 nM.

In the case of `CCn1nc(C)cc1C(=O)Nc1nc2cc(C(N)=O)c3ccoc3c2n1C/C=C/Cn1c2nc(-c3cc(C)nn3CC)ncc2c2cc(C(N)=O)cc(OCCCOC)c21` [Example 2, (E)-1-(4-(6-carbamoyl-2-(1-ethyl-3-methyl-1H-pyrazol-5-yl)-8-(3-methoxypropoxy)-9H-pyrimido[4,5-b]indol-9-yl)but-2-en-1-yl)-2-(1-ethyl-3-methyl-1H-pyrazole-5-carboxamido)-1H-benzofuro[6,7-d]imidazole-5-carboxamide], the EC50 is below 100 nM.

`CCn1nc(C)cc1C(=O)Nc1nc2cc(C(N)=O)c3ccoc3c2n1C/C=C/Cn1c2nc(-c3cc(C)nn3CC)ncc2c2cc(C(N)=O)cc(OCCCO)c21` [Example 3, (E)-1-(4-(6-carbamoyl-2-(1-ethyl-3-methyl-1H-pyrazol-5-yl)-8-(3-hydroxypropoxy)-9H-pyrimido[4,5-b]indol-9-yl)but-2-en-1-yl)-2-(1-ethyl-3-methyl-1H-pyrazole-5-carboxamido)-1H-benzofuro[6,7-d]imidazole-5-carboxamide]: the concentration for a half-maximal effect (EC50) is below 100 nM.
